In BindingDB's records for doi:10.1124/jpet.104.066688 (Acadia Pharmaceuticals, 2004):
pKi: −log10 of the molar value.

Molecular target: T1, 5-hydroxytryptamine receptor 2C (Homo sapiens, UniProt P28335)
T1 sequence (P28335 whole entry): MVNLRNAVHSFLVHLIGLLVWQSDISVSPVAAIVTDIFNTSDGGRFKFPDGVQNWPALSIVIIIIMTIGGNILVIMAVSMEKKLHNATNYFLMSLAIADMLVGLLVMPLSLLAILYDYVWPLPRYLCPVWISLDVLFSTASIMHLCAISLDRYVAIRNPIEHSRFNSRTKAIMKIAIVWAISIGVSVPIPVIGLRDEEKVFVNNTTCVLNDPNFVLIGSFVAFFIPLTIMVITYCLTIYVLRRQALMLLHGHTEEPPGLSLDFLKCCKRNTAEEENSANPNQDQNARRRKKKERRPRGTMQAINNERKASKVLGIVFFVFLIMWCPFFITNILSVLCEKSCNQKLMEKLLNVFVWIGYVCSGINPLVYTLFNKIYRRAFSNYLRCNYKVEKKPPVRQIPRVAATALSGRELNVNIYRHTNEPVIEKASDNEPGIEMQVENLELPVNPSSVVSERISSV

A pKi of 8.54 was found for COc1ccc(CC(=O)N(Cc2ccc(C)cc2)C2CCN(C)CC2)cc1 [N-(4-Methylbenzyl)-N-(1-methyl-4-piperidinyl)-4-methoxybenzeneacetamide] in this work.
